# Measured values from ChEMBL document CHEMBL5360578, “Design, synthesis and evaluation of novel pyrrole-hydroxybutenolide hybrids as promising antiplasmodial and anti-inflammatory agents” (Eur J Med Chem, 2023).
# Activity calls are given as the source filed them. The rule behind the calls is not given here.
# How the values were obtained:
# [1] = Cytotoxicity against African green monkey Vero cells incubated for 3 days by fluorescence based assay; assay type: toxicity, cell-based; settings: chlorocebus sabaeus, time 3 day
# Mus musculus [2] = assay: Antiinflammatory activity in Swiss albino mouse assessed as inhibition of carrageenan-induced paw edema at 25 mg/kg,po pretreated for 1 hr followed by carrageenan administration measured after 6 hrs relative to control; assay type: functional; settings: time 7 hrs
# [3] = Clearance in fasted Swiss mouse at 50 mg/kg, po measured upto 48 hrs by LC-MS/MS analysis; assay type: ADME, organism-based; settings: in vivo
# [4] = Tmax in fasted Swiss mouse at 50 mg/kg, po measured upto 48 hrs by LC-MS/MS analysis; assay type: ADME, organism-based; settings: in vivo
# Mus musculus [5] = assay: Antiinflammatory activity in Swiss albino mouse assessed as inhibition of carrageenan-induced paw edema at 50 mg/kg,po pretreated for 1 hr followed by carrageenan administration measured after 6 hrs relative to control; assay type: functional; settings: time 7 hrs
# [6] = Stability in simulated intestinal fluid assessed as compound remaining at pH 6.8 measured upto 120 mins by LC-MS analysis; assay type: ADME; settings: read-out: Stability
# [7] = Stability in mouse plasma assessed as compound remaining at 10 uM measured upto 120 mins by LC-MS analysis; assay type: ADME, cell-free; settings: read-out: Stability
# THP-1 [8] = assay: Downregulation of LPS-induced JNK1/2 phosphorylation in human THP-1 cells at 10 uM incubated for 60 mins followed by LPS treatment 90 mins by […]; assay type: functional, cell-based; settings: time 150.0 min
# [9] = Stability in simulated physiological fluid assessed as compound remaining at pH 7.4 measured upto 120 mins by LC-MS analysis; assay type: physicochemical; settings: read-out: Stability
# [10] = Stability in simulated gastric fluid assessed as compound remaining at pH 1.2 measured upto 120 mins by LC-MS analysis; assay type: ADME; settings: read-out: Stability
# Mus musculus [11] = assay: Antiinflammatory activity in Swiss albino mouse assessed as inhibition of carrageenan-induced paw edema at 100 mg/kg,po pretreated for 1 hr followed by carrageenan administration measured after 6 hrs relative to control; assay type: functional; settings: time 7 hrs
# Plasmodium yoelii [12] = assay: Antimalarial activity against chloroquine-resistant Plasmodium yoelii N67 infected in Swiss mouse assessed as parasite growth suppression at 100 mg/kg/day, po for 4 days measured on day 4 relative to control; assay type: functional; settings: time 4 day
# Plasmodium falciparum [13] = assay: Antimalarial activity against asynchronous chloroquine-sensitive Plasmodium falciparum 3D7 assessed as parasite growth inhibition infected in erythrocytes incubated for 72 hrs by SYBR green dye based assay; assay type: functional, organism-based; settings: 3D7, 72 h
# [14] = MRT in fasted Swiss mouse at 50 mg/kg, po measured upto 48 hrs by LC-MS/MS analysis; assay type: ADME, organism-based; settings: in vivo
# THP-1 [15] = assay: Downregulation of LPS-induced ERK1/2 phosphorylation in human THP-1 cells at 10 uM incubated for 60 mins followed by LPS treatment 90 mins by […]; assay type: functional, cell-based; settings: time 150.0 min
# HEK-293T = assay: Antiinflammatory activity against HEK293T cells assessed as fold increase in TNFalpha-induced NF-kappaB activity at 10 uM incubated for 1 hr followed by TNFalpha treatment for 5 hrs by luciferase based assay (reference value: 17.1); assay type: functional, Homo sapiens
# Mus musculus [16] = assay: Antiinflammatory activity in Swiss albino mouse assessed as inhibition of carrageenan-induced paw edema at 50 mg/kg,po pretreated for 1 hr followed by carrageenan administration measured after 4 hrs relative to control; assay type: functional; settings: time 5 hrs
# Plasmodium yoelii [17] = assay: Antimalarial activity against chloroquine-resistant Plasmodium yoelii N67 infected in Swiss mouse assessed as parasite growth suppression at 100 mg/kg/day, po for 4 days measured on day 7 relative to control; assay type: functional; settings: time 7 day
# Mus musculus [18] = assay: Antiinflammatory activity in Swiss albino mouse assessed as inhibition of carrageenan-induced paw edema at 25 mg/kg,po pretreated for 1 hr followed by carrageenan administration measured after 4 hrs relative to control; assay type: functional; settings: time 5 hrs
# THP-1 [19] = assay: Antiinflammatory activity against human THP-1 cells assessed as inhibition of LPS-induced TNFalpha level at 10 uM incubated for 12 to 14 hrs followed by compound replenishment for 1 hr and subsequent LPS treatment for 4 hrs by ELISA assay (reference value: 93.43 %); assay type: functional; parameters: scale not given: the % may be the effect or the level left; settings: time 17-19 hrs
# [20] = Volume of distribution in fasted Swiss mouse at 50 mg/kg, po measured upto 48 hrs by LC-MS/MS analysis; assay type: ADME, organism-based; settings: in vivo
# [21] = Cmax in fasted Swiss mouse at 50 mg/kg, po measured upto 48 hrs by LC-MS/MS analysis; assay type: ADME, organism-based; parameters: time < 48 hrs, dose 50 mg/kg, route po; settings: in vivo
# THP-1 [22] = assay: Cytotoxicity against LPS-stimulated human THP-1 cells assessed as cell viability at 10 uM incubated for 12 hrs followed by LPS treatment measured after 4 hrs by PI staining based flow cytometry; assay type: functional; settings: time 16.0 hrs
# [23] = Half life in fasted Swiss mouse at 50 mg/kg, po measured upto 48 hrs by LC-MS/MS analysis; assay type: ADME, organism-based; settings: in vivo
# [24] = AUC in fasted Swiss mouse at 50 mg/kg, po measured upto 48 hrs by LC-MS/MS analysis; assay type: ADME, organism-based; parameters: time < 48 hrs, dose 50 mg/kg, route po; settings: in vivo
# Mus musculus [25] = assay: Antiinflammatory activity in Swiss albino mouse assessed as inhibition of carrageenan-induced paw edema at 100 mg/kg,po pretreated for 1 hr followed by carrageenan administration measured after 4 hrs relative to control; assay type: functional; settings: time 5 hrs
# [26] = Toxicity in Swiss mouse infected with chloroquine-resistant Plasmodium yoelii N67 assessed as mean survival time at 100 mg/kg/day, po for 4 days (reference value: 7.2 +/- 1.3 day); assay type: organism-based; settings: in vivo, 96 h, time 4 day
# Plasmodium falciparum [27] = assay: Antimalarial activity against asynchronous chloroquine-resistant Plasmodium falciparum K1 assessed as parasite growth inhibition infected in erythrocytes incubated for 72 hrs by SYBR green dye based assay; assay type: functional, organism-based; settings: K1, 72 h
# Mus musculus [28] = assay: Antiinflammatory activity in Swiss albino mouse assessed as inhibition of carrageenan-induced paw edema at 200 mg/kg,po pretreated for 1 hr followed by carrageenan administration measured after 4 hrs relative to control; assay type: functional; settings: time 5 hrs
# Mus musculus [29] = assay: Antiinflammatory activity in Swiss albino mouse assessed as inhibition of carrageenan-induced paw edema at 200 mg/kg,po pretreated for 1 hr followed by carrageenan administration measured after 6 hrs relative to control; assay type: functional; settings: time 7 hrs
compound,measurement,setting,value
Cc1c(C(=O)Nc2ccccc2)c(-c2ccccc2)c(-c2ccc(C(C)C)cc2)n1CCC1=CC(=O)OC1O (configuration not stated),CC50 at 72 h,[1],138000 nM
same,inhibition in vivo at 25 mg/kg,Mus musculus [2],43%
same,CL/F,[3],292 L/h/kg
same,Tmax,[4],15 min
same,inhibition in vivo at 50 mg/kg,Mus musculus [5],58%
same,remaining at 2 h,[6],89.9%
same,"remaining at 2 h, 10 µM",[7],81.8%
same,Activity,THP-1 [8],Active
same,remaining at 2 h,[9],89.8%
same,remaining at 2 h,[10],89.7%
same,inhibition in vivo at 100 mg/kg,Mus musculus [11],62%
same,Activity,Plasmodium yoelii [12],69.4%
same,IC50,Plasmodium falciparum [13],970 nM
same,MRT,[14],58.8 min
same,Activity,THP-1 [15],Active
same,fold change (FC),HEK-293T,7.4
same,inhibition in vivo at 50 mg/kg,Mus musculus [16],60%
same,Activity,Plasmodium yoelii [17],46.4%
same,inhibition in vivo at 25 mg/kg,Mus musculus [18],49%
same,Activity,THP-1 [19],92.51%
same,Vd,[20],541.85 L/kg
same,Cmax,[21],369 ng/mL
same,Activity,THP-1 [22],Active
same,half-life,[23],75 min
same,AUC at 48 h,[24],178 ng·h/mL
same,inhibition in vivo at 100 mg/kg,Mus musculus [25],67%
same,MST,[26],12.2 days
same,IC50,Plasmodium falciparum [27],4210 nM
Cc1ccc(-c2c(C(=O)Nc3ccccc3)c(C)n(CCC3=CC(=O)OC3O)c2-c2ccc(C)cc2)cc1 (configuration not stated),IC50,Plasmodium falciparum [13],> 5000 nM
CCN(CC)CCCC(C)Nc1ccnc2cc(Cl)ccc12 (configuration not stated) [CHLOROQUINE],CC50 at 72 h,[1],187000 nM
Cc1c(C(=O)Nc2ccccc2)c(-c2ccc(F)cc2)c(-c2ccc(F)cc2)n1CC1=CC(=O)OC1O (configuration not stated),IC50,Plasmodium falciparum [13],4620 nM
same,fold change (FC),HEK-293T,9
same,Activity,THP-1 [19],32.69%
same,Activity,THP-1 [22],Active
Cc1ccc(-c2c(-c3ccccc3)c(C(=O)Nc3ccccc3)c(C)n2CC2=CC(=O)OC2O)cc1 (configuration not stated),IC50,Plasmodium falciparum [13],1310 nM
same,fold change (FC),HEK-293T,12.5
same,Activity,THP-1 [19],84%
same,Activity,THP-1 [22],Active
Cc1c(C(=O)Nc2ccccc2)c(-c2ccccc2)c(-c2ccccc2)n1CCC1=CC(=O)OC1O (configuration not stated),IC50,Plasmodium falciparum [13],2830 nM
same,fold change (FC),HEK-293T,10.3
same,Activity,THP-1 [19],13.5%
same,Activity,THP-1 [22],Active
Cc1c(C(=O)Nc2ccccc2)c(-c2ccccc2)c(-c2ccccc2)n1CC1=CC(=O)OC1O (configuration not stated),IC50,Plasmodium falciparum [13],1420 nM
same,fold change (FC),HEK-293T,10.6
same,Activity,THP-1 [19],78.73%
same,Activity,THP-1 [22],Active
COc1ccc(-c2c(C(=O)Nc3ccccc3)c(C)n(CC3=CC(=O)OC3O)c2-c2ccc(OC)cc2)cc1 (configuration not stated),IC50,Plasmodium falciparum [13],1800 nM
same,fold change (FC),HEK-293T,9.8
same,Activity,THP-1 [19],19.82%
same,Activity,THP-1 [22],Active
CC(C)Cc1ccc(C(C)C(=O)O)cc1 (configuration not stated) [IBUPROFEN],inhibition in vivo at 200 mg/kg,Mus musculus [28],78%
same,inhibition in vivo at 200 mg/kg,Mus musculus [29],72%
Cc1c(C(=O)Nc2ccccc2)c(-c2ccccc2)c(-c2ccc(Cl)cc2)n1CCC1=CC(=O)OC1O (configuration not stated),IC50,Plasmodium falciparum [13],2190 nM
same,fold change (FC),HEK-293T,10.4
same,Activity,THP-1 [19],35.92%
same,Activity,THP-1 [22],Active
Cc1c(C(=O)Nc2ccccc2)c(-c2ccc(Cl)cc2)c(-c2ccc(Cl)cc2)n1CCC1=CC(=O)OC1O (configuration not stated),inhibition in vivo at 25 mg/kg,Mus musculus [2],56%
same,CL/F,[3],589 L/h/kg
same,Tmax,[4],15 min
same,inhibition in vivo at 50 mg/kg,Mus musculus [5],56%
same,remaining at 2 h,[6],84.4%
same,"remaining at 2 h, 10 µM",[7],86.5%
same,Activity,THP-1 [8],Active
same,remaining at 2 h,[9],87.9%
same,remaining at 2 h,[10],89.5%
same,inhibition in vivo at 100 mg/kg,Mus musculus [11],65%
same,IC50,Plasmodium falciparum [13],1470 nM
same,MRT,[14],61.2 min
same,Activity,THP-1 [15],Active
same,fold change (FC),HEK-293T,9.9
same,inhibition in vivo at 50 mg/kg,Mus musculus [16],62%
same,inhibition in vivo at 25 mg/kg,Mus musculus [18],61%
same,Activity,THP-1 [19],92.36%
same,Vd,[20],754.5 L/kg
same,Cmax,[21],110 ng/mL
same,Activity,THP-1 [22],Active
same,half-life,[23],52.2 min
same,AUC at 48 h,[24],86.9 ng·h/mL
same,inhibition in vivo at 100 mg/kg,Mus musculus [25],73%
O=C1C=C(O)CO1,IC50,Plasmodium falciparum [13],4880 nM
same,IC50,Plasmodium falciparum [27],> 5000 nM
Cc1c(C(=O)Nc2ccccc2)c(-c2ccccc2)c(-c2ccc(C(C)C)cc2)n1C,IC50,Plasmodium falciparum [13],2940 nM
same,IC50,Plasmodium falciparum [27],4340 nM
Cc1c(C(=O)Nc2ccccc2)c(-c2ccccc2)c(-c2ccc(Cl)cc2)n1CC1=CC(=O)OC1O (configuration not stated),IC50,Plasmodium falciparum [13],1360 nM
same,fold change (FC),HEK-293T,12.1
same,Activity,THP-1 [19],88.38%
same,Activity,THP-1 [22],Active
